The numbers were not newly measured in patent publication US20240225064A1, “METHOD FOR MASS-PRODUCING SWEETENER HAVING TASTE QUALITY SIMILAR TO THAT OF SUGAR AND HAVING D-ALLULOSE FUNCTIONALITY” (NATIONAL UNIVERSITY CORPORATION KAGAWA UNIVERSITY, priority 2021, published 2024), which cites them from elsewhere.

Read-outs that look alike come from different tables or passages of the source.

For data set [1] the following is noted: content in sweetener.
Experiment in data set [2]: not given
This is another data set of the same source.

Turning to `O=C(CO)[C@H](O)[C@H](O)[C@H](O)CO` [D-allulose], in data set [1], the “D-allulose content at which the function of suppressing rapid absorption of a saccharide appears” value was not below 5 mass %. Further, the “sweetness degree (sweetness intensity)” value (assuming that the sweetness degree of sugar is 100) is 70. Moreover, the “sweetness degree relative to sugar” value (of that of sugar) is on record as “about 70%”. The “acute oral toxicity test” value in data set [2] is given as ≥ 5,000 mg/kg.
With `O=C(CO)[C@@H](O)[C@H](O)[C@H](O)CO` [D-fructose], the “sweetness of D-fructose relative to sucrose” value reads like this: (at 40° C.) “equal thereto”; (at high temperatures) 60%.
